Measurements as given in ChEMBL document CHEMBL4325928, “Structure-Property Basis for Solving Transporter-Mediated Efflux and Pan-Genotypic Inhibition in HCV NS5B Inhibitors” (ACS Med Chem Lett, 2018).

Tests used:
[1] = Permeability of the compound at pH 7.4 by PAMPA; type: ADME; conditions: read-out: permeability
[2] = Efflux ratio of permeability from basolateral side to apical side over apical side to basolateral side in human Caco2 cells expressing p-gp at 3 uM incubated for 2 hrs by LC-MS/MS analysis; type: ADME, cell-based; conditions: Caco-2
[3] = Permeability across apical side to basolateral side in human Caco2 cells expressing p-gp at 3 uM incubated for 2 hrs by LC-MS/MS analysis; type: ADME, cell-based; conditions: Caco-2, read-out: permeability
[4] = Permeability across basolateral side to apical side in human Caco2 cells expressing p-gp at 3 uM incubated for 2 hrs by LC-MS/MS analysis; type: ADME, cell-based; conditions: Caco-2, read-out: permeability
[5] = Stability in human liver microsomes assessed as parent compound remaining; type: ADME, Microsome
[6] = Stability in rat liver microsomes assessed as parent compound remaining; type: ADME, Microsome
[7] = Half life in human liver microsomes; type: ADME, Microsome
[8] = Half life in rat liver microsomes; type: ADME, Microsome
[9] = Drug level in cannulated Sprague-Dawley rat liver at 6 mg/kg, po administered via gastric gavage measured after 5 hrs by LC-MS/MS analysis; type: ADME, organism-based; conditions: read-out: Drug uptake
[10] = Clearance in cannulated Sprague-Dawley rat at 2 mg/kg, iv administered as 10 mins infusion by LC-MS/MS analysis; type: ADME, organism-based; conditions: in vivo
[11] = Half life in cannulated Sprague-Dawley rat at 2 mg/kg, iv administered as 10 mins infusion by LC-MS/MS analysis; type: ADME, organism-based; conditions: in vivo
[12] = Volume of distribution at steady state in cannulated Sprague-Dawley rat at 2 mg/kg, iv administered as 10 mins infusion by LC-MS/MS analysis; type: ADME, organism-based; conditions: in vivo, read-out: Vdss
[13] = Cmax in cannulated Sprague-Dawley rat at 6 mg/kg, po administered via gastric gavage by LC-MS/MS analysis; type: ADME, organism-based; set-up: dose 6 mg/kg, route oral; conditions: in vivo
[14] = Tmax in cannulated Sprague-Dawley rat at 6 mg/kg, po administered via gastric gavage by LC-MS/MS analysis; type: ADME, organism-based; conditions: in vivo
[15] = AUC in cannulated Sprague-Dawley rat at 6 mg/kg, po administered via gastric gavage by LC-MS/MS analysis; type: ADME, organism-based; conditions: in vivo
[16] = Oral bioavailability in cannulated Sprague-Dawley rat at 6 mg/kg administered via gastric gavage by LC-MS/MS analysis; type: ADME, organism-based; conditions: in vivo
[17] = Drug level in cannulated Sprague-Dawley rat plasma at 6 mg/kg, po administered via gastric gavage measured after 5 hrs by LC-MS/MS analysis; type: ADME, organism-based
[18] = Drug level in cannulated Sprague-Dawley rat liver at 6 mg/kg, po administered via gastric gavage measured after 24 hrs by LC-MS/MS analysis; type: ADME, organism-based; conditions: read-out: Drug uptake

SMILES	Papp [1] [×10⁻⁶ cm/s]	efflux ratio at 2 h, 3 µM [2]	Papp A→B at 2 h, 3 µM [3] [×10⁻⁶ cm/s]	Papp B→A at 2 h, 3 µM [4] [×10⁻⁶ cm/s]	also measured
CNC(=O)c1c(-c2ccc(F)cc2)oc2cc(N(CCO)S(C)(=O)=O)c(-c3cccc(C(=O)NC4(c5ccccc5)CC4)c3)cc12	–	–	–	–	Stability [5]: 63%; Stability [6]: 0.6%
CCN(c1cc2oc(-c3ccc(F)cc3)c(C(=O)NC)c2cc1-c1cccc(C(=O)NC2(c3ncccn3)CC2)c1)S(C)(=O)=O	–	> 8.6	< 1.5	13	Stability [5]: 100%; Stability [6]: 91%; half-life [7]: > 2 h; half-life [8]: 0.817 h
CCN(c1cc2oc(-c3ccc(F)cc3)c(C(=O)NC)c2cc1-c1cc(C)c(OC)c(C(=O)NC2(c3ncccn3)CC2)c1)S(C)(=O)=O	40.9	9.8	3.3	32.2	–
CCN(c1cc2oc(-c3ccc(F)cc3)c(C(=O)NC)c2cc1-c1cc(Cl)c(OC)c(C(=O)NC2(c3ncccn3)CC2)c1)S(C)(=O)=O	82.1	2.2	5.2	11.4	half-life [7]: 0.232 h; half-life [8]: 0.433 h; concentration at 5 h [17]: 277 nM; concentration at 5 h [9]: 7180 nM
CCN(c1cc2oc(-c3ccc(F)cc3)c(C(=O)NC)c2cc1-c1cc(F)c(F)c(C(=O)NC2(c3ncccn3)CC2)c1)S(C)(=O)=O	73.1	7.8	7.9	62.3	–
CNC(=O)c1c(-c2ccc(F)cc2)oc2ccc(-c3cccc(C(=O)NC4(c5ccccn5)CC4)c3)cc12	–	–	–	–	Stability [5]: 91%; Stability [6]: 54%
CCNc1cc2oc(-c3ccc(F)cc3)c(C(=O)NC)c2cc1-c1ccc(OC)c(C(=O)NC2(c3ncccn3)CC2)c1	72	0.8	23.2	17.6	half-life [7]: 0.6 h; half-life [8]: 0.65 h; concentration at 5 h [9]: 5260 nM; clearance [10]: 11 mL/min/kg; half-life [11]: 4.7 h; Vd [12]: 4 L/kg; Cmax [13]: 776 nM; Tmax [14]: 5.3 h; AUC [15]: 7.8 µM·h; concentration at 24 h [18]: 391 nM; bioavailability [16]: 57%
CNC(=O)c1c(-c2ccc(F)cc2)oc2cc(N(CCO)S(C)(=O)=O)c(-c3cccc(C(=O)NC4(c5ccccn5)CC4)c3)cc12	–	–	–	–	Stability [5]: 99%; Stability [6]: 8.7%
CCN(c1cc2oc(-c3ccc(F)cc3)c(C(=O)NC)c2cc1-c1cc(F)c(OC)c(C(=O)NC2(c3ncccn3)CC2)c1)S(C)(=O)=O	65.9	13.8	2.9	40.6	–

Now from value to compound, other results behind:

Papp [1] [×10⁻⁶ cm/s]	efflux ratio at 2 h, 3 µM [2]	Papp A→B at 2 h, 3 µM [3] [×10⁻⁶ cm/s]	Papp B→A at 2 h, 3 µM [4] [×10⁻⁶ cm/s]	SMILES	also measured
57.5	24.1	2	47.9	CCN(C(=O)N(C)C)c1cc2oc(-c3ccc(F)cc3)c(C(=O)NC)c2cc1-c1ccc(OC)c(C(=O)NC2(c3ncccn3)CC2)c1	–
66	9.6	2.4	23.2	CCN(C(=O)OC)c1cc2oc(-c3ccc(F)cc3)c(C(=O)NC)c2cc1-c1ccc(OC)c(C(=O)NC2(c3ncccn3)CC2)c1	–
48.7	> 12.4	< 1.5	18.5	CCN(c1cc2oc(-c3ccc(F)cc3)c(C(=O)NC)c2cc1-c1ccc(OC)c(C(=O)NC2(c3ncccn3)CC2)c1)S(C)(=O)=O	half-life [7]: 1.52 h; half-life [8]: > 2 h; concentration at 5 h [9]: 1180 nM; clearance [10]: 60 mL/min/kg; half-life [11]: 1.6 h; Vd [12]: 14 L/kg; Cmax [13]: 223 nM; Tmax [14]: 1.9 h; AUC [15]: 0.74 µM·h; bioavailability [16]: 20%
46.6	> 20.5	< 1.5	30.8	CCN(C(C)=O)c1cc2oc(-c3ccc(F)cc3)c(C(=O)NC)c2cc1-c1ccc(OC)c(C(=O)NC2(c3ncccn3)CC2)c1	–
83.5	2.7	4.2	11.5	CCN(C(=O)C(F)(F)F)c1cc2oc(-c3ccc(F)cc3)c(C(=O)NC)c2cc1-c1ccc(OC)c(C(=O)NC2(c3ncccn3)CC2)c1	–
